Data published in patent US6225478A, “Iridoid derivatives and neovascularization inhibitors containing the same as active ingredient” (Tsumura & Co., priority 1999, dated 2001).
≈ marks a conversion by molar mass, not a printed value.

How the values were obtained:
Type in all cases: cell-based
[1] = test system: human umbilical-vein endothelial cells (HUVEC); experiment: Cell Migration Assay (CMA) Test, HUVEC (% relative to control); conditions: 24 hours, 60% or less = remarkable inhibition; for activity at 1 µg/mL / activity at 10 µg/mL: Homo sapiens, HUVEC, read-out: CMA (% relative to control)
Method in brief: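 Confluent 7th-subculture HUVEC monolayers scraped with razor blade, then given M199 (2+) plus 40 or 4 μl of 1 mg/ml sample (in 5% DMSO-PBS) per 4.0 ml medium for 24 h at 37 °C. Methanol-fixed, Giemsa-stained; newly migrated cells counted microscopically in 1 mm×1 mm blocks, expressed versus M199 (2+) control.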

[2] = test system: human umbilical-vein endothelial cells (HUVEC); experiment: Cell Proliferation Assay (CPA) Test, HUVEC, MTT; conditions: M199 (2+) medium; for IC50: Homo sapiens, read-out: CPA (IC50 μg/ml)
Method in brief: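 HUVEC (7th subculture) seeded at 5×10^4 cells/ml in M-199 with 20% FCS, 10 ng/ml b-FGF and 10 ng/ml EGF, grown 24 h at 37 °C, 5% CO2. Compounds added from 1 mg/ml or 0.1 mg/ml samples in 5% DMSO-PBS(−), renewed with medium after 24 h, then cultured 48 h more. Read-out by MTT with 4 h incubation and SDS/HCl stop.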

[3] = test system: human umbilical-vein endothelial cells (HUVEC); experiment: Tube Formation Assay (TFA) Test, HUVEC in collagen gel; conditions: 20 hours, 40% or less judged remarkable; for inhibition at 1 µg/mL / inhibition at 10 µg/mL: Homo sapiens, HUVEC, 20 h, read-out: TFA (inhibition rate, %)
Method in brief: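 HUVEC (7th subculture, 1×10^5 cells/ml) attached to collagen gel for 2 h at 37 °C, given sample and overlaid with collagen, then cultured 20 h at 37 °C, 5% CO2 in M-199 with 20% FCS, 30 ng/ml b-FGF and 0.1 μM PMA. Tube length measured by image analysis; % inhibition relative to positive and negative controls.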

COC(=O)C1=CO[C@H](OC(=O)NC(=O)c2ccccc2)C2[C@@H]1C[C@@H]1O[C@]21C (stereo in doubt) [compound 42, (1R,4aS,6S,7R,7aR)-1-(benzoylcarbamoyloxy)-6,7-epoxy-1,4a,5,6,7,7a-hexahydro-7-methylcyclopenta [c] pyrane-4-carboxylic acid methylester]
activity at 1 µg/mL ([1]; 1 μg/ml): 90.4%
activity at 10 µg/mL ([1]; 10 μg/ml): 70.6%
IC50 [2]: > 100 µg/mL
inhibition at 1 µg/mL ([3]; 1 μg/ml): 12.5%
inhibition at 10 µg/mL ([3]; 10 μg/ml): 18.7%

CNC(=O)OC1OC=C(C(=O)OCc2ccco2)C2CC3OC3(C)C12 [compound 10, (1S,4aS,6S,7R,7aR)-6,7-epoxy-1,4a,5,6,7,7a-hexahydro-7-methyl-1-(methylcarbamoyloxy) cyclopenta [c]-pyrane-4-carboxy-lic acid furfurylester]
activity at 1 µg/mL ([1]; 1 μg/ml): 101%
activity at 10 µg/mL ([1]; 10 μg/ml): 103%
IC50 [2]: 93.3 µg/mL (≈ 267 µM)
inhibition at 1 µg/mL ([3]; 1 μg/ml): 28.6%
inhibition at 10 µg/mL ([3]; 10 μg/ml): 27.7%

CNC(=O)O[C@@H]1OC=C(C(=O)NC)[C@H]2C[C@@H]3O[C@]3(C)[C@H]12 [compound 15, (1S,4aS,6S,7R,7aR)-6,7-epoxy-1,4a,5,6,7,7a-hexahydro-7-methyl-1-(methylcarbamoyloxy) cyclopenta [c]-pyrane-4-carboxylic acid methylamide]
activity at 1 µg/mL ([1]; 1 μg/ml): 71.1%
activity at 10 µg/mL ([1]; 10 μg/ml): 58.3%
IC50 [2]: > 100 µg/mL
inhibition at 1 µg/mL ([3]; 1 μg/ml): -16%
inhibition at 10 µg/mL ([3]; 10 μg/ml): -8%

CNC(=O)OC[C@@H]1[C@@H](C)CC[C@@H]1C1(COC(=O)NC)CO1 (stereo partly drawn) [Compound 59, 2-[(1S,2R,3S)-2-(methylcarbamoyloxy)methyl-3-methylcyclopento-1-yl]-2,3-epoxy-propane-1-methylcarbamate]
CMA (% relative to control) ([1]; 1 μg/ml): 99.3%
CMA (% relative to control) ([1]; 10 μg/ml): 92.5%
CPA (IC50 μg/ml) [2]: > 100.0 µg/mL
TFA (inhibition rate, %) ([3]; 1 μg/ml): 5.9%
TFA (inhibition rate, %) ([3]; 10 μg/ml): -4.5%

CNC(=O)OC1OC=C(C(=O)N(C)C)C2CC3OC3(C)C12 (centres unmarked) [compound 18]
activity at 1 µg/mL ([1]; 1 μg/ml): 90.3%
activity at 10 µg/mL ([1]; 10 μg/ml): 71.5%
IC50 [2]: > 100 µg/mL
inhibition at 1 µg/mL ([3]; 1 μg/ml): 28.6%
inhibition at 10 µg/mL ([3]; 10 μg/ml): 27.7%

CNC(=O)O[C@@H]1OC=C(C(=O)OC)[C@H]2CC[C@@]3(CO3)[C@@H]12 [compound 52, (1S,4aS,7R,7aR)-1-(methylcarbamoyloxy)-1,4a,5,6,7,7a-hexahydrospiro [cyclopenta [c]pyrane-7(1H),2'-oxirane]-4-carboxylic acid methylester]
activity at 1 µg/mL ([1]; 1 μg/ml): 101%
activity at 10 µg/mL ([1]; 10 μg/ml): 103%
IC50 [2]: > 100 µg/mL
inhibition at 1 µg/mL ([3]; 1 μg/ml): 21.7%
inhibition at 10 µg/mL ([3]; 10 μg/ml): -6.5%

CNC(=O)OC[C@]12O[C@H]1C[C@@H]1C(C(=O)OC)=CO[C@@H](O)[C@@H]12 [Compound 60, (4aS,6S,7R,7aR)-6,7-epoxy-1-hydroxy-7-methylcarbamoyloxymethyl-1,4a,5,6,7a-pentahydro [c] pyrane-4-carboxylic acid methylester]
activity at 1 µg/mL ([1]; 1 μg/ml): 87.1%
activity at 10 µg/mL ([1]; 10 μg/ml): 96.3%
IC50 [2]: > 100 µg/mL
inhibition at 1 µg/mL ([3]; 1 μg/ml): 32.7%
inhibition at 10 µg/mL ([3]; 10 μg/ml): 41.5%

CNC(=O)O[C@@H]1OC=C(C(=O)OC)[C@H]2C[C@H]3O[C@@]3(C)C12 (stereo in doubt) [Compound 57, (1S,4aS,6R,7S,7aR)-6,7-epoxy-7-methyl-1-(methylcarbamoyloxy)-1,4a,5,6,7,7a-hexahydrocyclopenta [c] pyrane-4-carboxylic acid methylester]
activity at 1 µg/mL ([1]; 1 μg/ml): 96%
activity at 10 µg/mL ([1]; 10 μg/ml): 93%
IC50 [2]: > 100 µg/mL
inhibition at 1 µg/mL ([3]; 1 μg/ml): 17.7%
inhibition at 10 µg/mL ([3]; 10 μg/ml): 13.5%

C=CCCOC(=O)C1=CO[C@@H](OC(=O)NC)[C@@H]2[C@@H]1C[C@@H]1O[C@]21C [compound 8, (1S,4aS,6S,7R,7aR)-6,7-epoxy-1,4a,5,6,7,7a-hexahydro-7-methyl-1-(methylcarbamoyloxy) cyclopenta [c]-pyrane-4-carboxylic acid 3-butenylester]
activity at 1 µg/mL ([1]; 1 μg/ml): 75.4%
activity at 10 µg/mL ([1]; 10 μg/ml): 60.5%
IC50 [2]: 60.5 µg/mL (≈ 187 µM)
inhibition at 1 µg/mL ([3]; 1 μg/ml): 27.3%
inhibition at 10 µg/mL ([3]; 10 μg/ml): 93.2%

COC(=O)C1=CO[C@H](OC(=O)NC(=O)CCl)[C@@H]2[C@@H]1C[C@@H]1O[C@]21C [compound 40, (1R,4aS,6S,7R,7aR)-1-(chloroacetylcarbamoyloxy)-6,7-epoxy-1,4a,5,6,7,7a-hexahydro-7-methylcyclopenta [c] pyrane-4-carboxylic acid methylester]
activity at 1 µg/mL ([1]; 1 μg/ml): 77.3%
activity at 10 µg/mL ([1]; 10 μg/ml): 66.8%
IC50 [2]: 58.1 µg/mL (≈ 168 µM)
inhibition at 1 µg/mL ([3]; 1 μg/ml): 32.8%
inhibition at 10 µg/mL ([3]; 10 μg/ml): 23.8%

CNC(=O)O[C@@H]1OC=C(C(=O)OC)[C@H]2C[C@@H]3O[C@]3(CF)[C@@H]12 [compound 50, (1S,4aS,6S,7R,7aR)-6,7-epoxy-7-(fluoromethyl)-1-(methylcarbamoloxy)-1,4a,5,6,7,7a-hexahydrocyclopenta [c] pyrane-4-carboxylic acid methylester]
activity at 1 µg/mL ([1]; 1 μg/ml): 87.9%
activity at 10 µg/mL ([1]; 10 μg/ml): 63.5%
IC50 [2]: > 100 µg/mL
inhibition at 1 µg/mL ([3]; 1 μg/ml): 9.5%
inhibition at 10 µg/mL ([3]; 10 μg/ml): 23.2%

CCCCCC[C@]12O[C@H]1C[C@@H]1C(C(=O)OC)=CO[C@@H](OC(=O)NC)[C@@H]12 [compound 44, (1S,4aS,6S,7R,7aR)-6. 7-epoxy-7-n-hexyl-1,4a,5,6,7,7a-hexahydro-1-(methylcarbamoyloxy) cyclopenta [c] pyrane-4-carboxylic acid methy:lester]
activity at 1 µg/mL ([1]; 1 μg/ml): 99.4%
activity at 10 µg/mL ([1]; 10 μg/ml): 98.2%
IC50 [2]: > 100 µg/mL
inhibition at 1 µg/mL ([3]; 1 μg/ml): 69.7%
inhibition at 10 µg/mL ([3]; 10 μg/ml): 71.4%

Protamine [reference compound]
CMA (% relative to control) ([1]; 1 μg/ml): 69.2%
CMA (% relative to control) ([1]; 10 μg/ml): 50.0%
CPA (IC50 μg/ml) [2]: 52.7 µg/mL
TFA (inhibition rate, %) ([3]; 1 μg/ml): 41.0%
TFA (inhibition rate, %) ([3]; 10 μg/ml): 25.4%

CNC(=O)O[C@@H]1OC=C(C(=O)NC2CCCCC2)[C@H]2C[C@@H]3O[C@]3(C)[C@H]12 [compound 21, (1S,4aS,6S,7R,7aR)-6,7-epoxy-1,4a,5,6,7,7a-hexahydro-7-methyl-1-(methylcarbamoyloxy) cyclopenta [c]-pyrane-4-carboxylic acid cyclohexylamide]
activity at 1 µg/mL ([1]; 1 μg/ml): 105%
activity at 10 µg/mL ([1]; 10 μg/ml): 101%
IC50 [2]: > 100 µg/mL
inhibition at 1 µg/mL ([3]; 1 μg/ml): 29.5%
inhibition at 10 µg/mL ([3]; 10 μg/ml): 23.2%

CNC(=O)O[C@@H]1OC=C(C(=O)O)[C@H]2C[C@@H]3O[C@]3(C)[C@H]12 [compound 1, (1S,4aS,6S,7R,7aR)-6,7-epoxy-1,4a,5,6,7,7a-hexahydro-7-methyl-1-(methylcarbamoyloxy) cyclopenta [c]-pyrane-4-carboxylic acid]
activity at 1 µg/mL ([1]; 1 μg/ml): 98.5%
activity at 10 µg/mL ([1]; 10 μg/ml): 93.5%
IC50 [2]: > 100 µg/mL
inhibition at 1 µg/mL ([3]; 1 μg/ml): 49.8%
inhibition at 10 µg/mL ([3]; 10 μg/ml): 37.8%

CCCCCCOC(=O)C1=CO[C@@H](OC(=O)NC)[C@@H]2[C@@H]1C[C@@H]1O[C@]21C [compound 5, (1S,4aS,6S,7R,7aR)-6,7-epoxy-1,4a,5,6,7,7a-hexahydro-7-methyl-1-(methylcarbamoyloxy) cyclopenta [c]-pyrane-4-carboxylic acid n-hexylester]
activity at 1 µg/mL ([1]; 1 μg/ml): 98.6%
activity at 10 µg/mL ([1]; 10 μg/ml): 82%
IC50 [2]: 44.9 µg/mL (≈ 127 µM)
inhibition at 1 µg/mL ([3]; 1 μg/ml): 20.8%
inhibition at 10 µg/mL ([3]; 10 μg/ml): 34.5%

CNC(=O)O[C@@H]1OC=C(C(=O)OCc2ccccc2)[C@H]2C[C@@H]3O[C@]3(C)[C@H]12 [compound 11, (1S,4aS,6S,7R,7aR)-6,7-epoxy-7-methyl-1-(methylcarbamoyloxy)-1,4a,5,6,7,7a-hexahydrocyclopenta [c]-pyrane-4-carboxylic acid benzyl ester]
activity at 1 µg/mL ([1]; 1 μg/ml): 102%
activity at 10 µg/mL ([1]; 10 μg/ml): 85.5%
IC50 [2]: > 100 µg/mL
inhibition at 1 µg/mL ([3]; 1 μg/ml): 20.7%
inhibition at 10 µg/mL ([3]; 10 μg/ml): 40.3%

CNC(=O)OC1OC=C(C(=O)N2CCCC2)C2CC3OC3(C)C12 [compound 25, (1S,4aS,6S,7R,7aR)-6,7-epoxy-1,4a,5,6,7,7a-hexahydro-7-methyl-1-(methylcarbamoyloxy) cyclopenta [c]-pyrane-4-carboxylic acid pyrrolidylamide]
activity at 1 µg/mL ([1]; 1 μg/ml): 91.8%
activity at 10 µg/mL ([1]; 10 μg/ml): 87.5%
IC50 [2]: > 100 µg/mL
inhibition at 1 µg/mL ([3]; 1 μg/ml): 31.8%
inhibition at 10 µg/mL ([3]; 10 μg/ml): 14.5%

COC(=O)C1=CO[C@@H](OC(=O)NC(=O)c2ccccc2)[C@@H]2[C@@H]1C[C@@H]1O[C@]21C [compound 41, (1S,4aS,6S,7R,7aR)-1-(benzoylcarbamoyloxy)-6,7-epoxy-1,4a,5,6,7,7a-hexahydro-7-methylcyclopenta [c] pyrane-4-carboxylic acid methylester]
activity at 1 µg/mL ([1]; 1 μg/ml): 102%
activity at 10 µg/mL ([1]; 10 μg/ml): 95%
IC50 [2]: 56.1 µg/mL (≈ 150 µM)
inhibition at 1 µg/mL ([3]; 1 μg/ml): 46.7%
inhibition at 10 µg/mL ([3]; 10 μg/ml): 37.6%
